According to the Kinase Knowledgebase extract (Sharma et al. 2016):

target: PIK3CB;PIK3CG;PIK3CD;PIK3CA (human) (UniProt P48736); test: Enzyme Assay

Point of comparison: `Cn1nc(C(=O)N2CCOCC2)c2c1-c1cccc(F)c1S(=O)(=O)C2`, IC50 687 nM. Against it:
- O=C(c1nn([C@H]2CCCN(CCN3CC(F)(F)C3)C2)c2c1CS(=O)(=O)c1ccccc1-2)N1CCOCC1 — 40-fold lower, 17 nM
- COC1CN(Cc2cccc(-n3nc(C(=O)N4CCOCC4)c4c3-c3ccccc3S(=O)(=O)C4)c2)C1 — 2.5-fold lower, 277 nM
- O=C(c1ccc(-n2nc(C(=O)N3CCOCC3)c3c2-c2ccccc2S(=O)(=O)C3)cc1)N1CCCCC1 — 2.9-fold lower, 238 nM
- CS(=O)(=O)Nc1ccc2c(c1)-c1c(c(C(=O)N3CCOCC3)nn1-c1ccccc1)CS2(=O)=O — 1.9-fold higher, 1310 nM
- O=C(c1nn([C@H]2CCCN(c3ccncc3)C2)c2c1CS(=O)(=O)c1ccccc1-2)N1CCOCC1 — 5.2-fold lower, 133 nM
- O=C(c1nn(C2CCCN(CCN3CCOCC3)C2)c2c1CS(=O)(=O)c1ccccc1-2)N1CCOCC1 (stereo not drawn) — 5.6-fold lower, 122 nM
- O=C(c1nn(C2CCCN(CCn3cccn3)C2)c2c1CS(=O)(=O)c1c(F)cccc1-2)N1CCOCC1 (stereo not drawn) — 8.6-fold lower, 80 nM
- O=C(c1nn(Cc2cc(Cl)cs2)c2c1CS(=O)(=O)c1ccccc1-2)N1CCOCC1 — within 1.5-fold, 624 nM
- O=C(c1nn(Cc2ccccn2)c2c1CS(=O)(=O)c1ccccc1-2)N1CCOCC1 — 5.8-fold higher, 3960 nM
- O=C(c1nn(-c2ccccc2)c2c1CS(=O)(=O)c1ccc(F)cc1-2)N1CCOCC1 — within 1.5-fold, 987 nM
- CN(C)Cc1noc(-c2cccc(-n3nc(C(=O)N4CCOCC4)c4c3-c3ccccc3S(=O)(=O)C4)c2)n1 — 4.3-fold higher, 2980 nM
- O=C(c1nn(-c2ccc(CN3CCC(F)(F)CC3)cc2)c2c1CS(=O)(=O)c1ccccc1-2)N1CCOCC1 — 3-fold lower, 230 nM
- O=C(c1nn(-c2ccccc2)c2c1CS(=O)(=O)c1ccccc1-2)N1CCOC(CO)C1 (stereo not drawn) — 9.5-fold higher, 6530 nM
- O=C(c1nn(-c2ccccc2Br)c2c1CS(=O)(=O)c1ccccc1-2)N1CCOCC1 — 8-fold higher, 5500 nM
- O=C(c1nn([C@H]2CCCN(CCF)C2)c2c1CS(=O)(=O)c1ccccc1-2)N1CCOCC1 — 3.4-fold lower, 200 nM
- COC1CCN(Cc2cccc(-n3nc(C(=O)N4CCOCC4)c4c3-c3ccccc3S(=O)(=O)C4)c2)C1 (stereo not drawn) — 2-fold lower, 350 nM
- CCc1noc(Cn2nc(C(=O)N3CCOCC3)c3c2-c2ccccc2S(=O)(=O)C3)n1 — 2.8-fold higher, 1920 nM
- Cc1cccc(-n2nc(C(=O)N3CCOCC3)c3c2-c2ccccc2S(=O)(=O)C3)c1 — within 1.5-fold, 926 nM
- O=C(c1nn([C@H]2CCCN(CCN3CCOCC3)C2)c2c1CS(=O)(=O)c1ccccc1-2)N1CCOCC1 — 43-fold lower, 16 nM
- O=C(c1nn(C2CCN(CCN3CC(F)(F)C3)C2)c2c1CS(=O)(=O)c1ccccc1-2)N1CCOCC1 (stereo not drawn) — 4.4-fold lower, 156 nM
- O=C(c1nn(CC2CCCO2)c2c1CS(=O)(=O)c1ccccc1-2)N1CCOCC1 (stereo not drawn) — 2.3-fold higher, 1560 nM
- O=C(c1cccc(-n2nc(C(=O)N3CCOCC3)c3c2-c2ccccc2S(=O)(=O)C3)c1)N1CCCC(O)C1 (stereo not drawn) — 2-fold lower, 348 nM
- O=C(c1nn(-c2cccc(N3CCOCC3)c2)c2c1CS(=O)(=O)c1ccccc1-2)N1CCOCC1 — within 1.5-fold, 673 nM
- O=C(c1nn(-c2cccc(CN3CC(F)(F)C3)c2)c2c1CS(=O)(=O)c1ccccc1-2)N1CCOCC1 — within 1.5-fold, 643 nM
- O=C(c1nn([C@@H]2CCCN(CCN3CCOCC3)C2)c2c1CS(=O)(=O)c1c(Cl)cccc1-2)N1CCOCC1 — 7.6-fold higher, 5230 nM
- CC(C)CCOC1CCN(Cc2cccc(-n3nc(C(=O)N4CCOCC4)c4c3-c3ccccc3S(=O)(=O)C4)c2)C1 (stereo not drawn) — 1.8-fold lower, 389 nM
- O=C(c1nn(-c2ccccc2)c2c1CS(=O)(=O)c1ccc(Br)cc1-2)N1CCOCC1 — 1.9-fold higher, 1300 nM
- Cc1ccccc1-c1cccc(-n2nc(C(=O)N3CCOCC3)c3c2-c2ccccc2S(=O)(=O)C3)c1 — 1.6-fold higher, 1080 nM
- O=C(c1nn([C@H]2CCCN(CCN3CCCCC3)C2)c2c1CS(=O)(=O)c1ccccc1-2)N1CCOCC1 — 46-fold lower, 15 nM
- COCCNc1ccc2c(c1)-c1c(c(C(=O)N3CCOCC3)nn1C1CCCCC1)CS2(=O)=O — 2-fold higher, 1390 nM
- Cn1nc(C(=O)N2CCOCC2)c2c1-c1cc(F)ccc1S(=O)(=O)C2 — 3.2-fold higher, 2220 nM
- COc1ccc(-n2nc(C(=O)N3CCOCC3)c3c2-c2ccccc2S(=O)(=O)C3)cc1 — within 1.5-fold, 749 nM
- O=C(c1nn(-c2cccc(-c3cnn(CCN4CCOCC4)c3)c2)c2c1CS(=O)(=O)c1ccccc1-2)N1CCOCC1 — 2-fold lower, 338 nM
- O=C(c1nn(-c2ccc(CO)cc2)c2c1CS(=O)(=O)c1ccccc1-2)N1CCOCC1 — 1.5-fold higher, 1060 nM
- COCCNC(=O)c1cccc(-n2nc(C(=O)N3CCOCC3)c3c2-c2ccccc2S(=O)(=O)C3)c1 — 1.6-fold higher, 1110 nM
- COC1CN(Cc2ccc(-n3nc(C(=O)N4CCOCC4)c4c3-c3ccccc3S(=O)(=O)C4)cc2)C1 — 4.2-fold lower, 165 nM
- O=C(c1nn(C2CCN(CCn3ccnc3)C2)c2c1CS(=O)(=O)c1ccccc1-2)N1CCOCC1 (stereo not drawn) — 4.1-fold lower, 166 nM
- CC(C)(C)OC(=O)N1CCC(n2nc(C(=O)N3CCOCC3)c3c2-c2ccccc2S(=O)(=O)C3)C1 (stereo not drawn) — 1.7-fold higher, 1200 nM
- O=C(c1nn(C2CN(CCN3CCOCC3)C2)c2c1CS(=O)(=O)c1ccccc1-2)N1CCOCC1 — 2.9-fold lower, 236 nM
- COC(=O)CCN1CCC[C@H](n2nc(C(=O)N3CCOCC3)c3c2-c2ccccc2S(=O)(=O)C3)C1 — 14-fold lower, 48 nM
- O=C(c1nn(C2CCCN(CCN3CCOCC3)C2)c2c1CS(=O)(=O)c1c(F)cccc1-2)N1CCOCC1 (stereo not drawn) — 43-fold lower, 16 nM
- O=C(c1nn(C2CCN(CC3CCOC3)C2)c2c1CS(=O)(=O)c1c(F)cccc1-2)N1CCOCC1 (stereo not drawn) — 12-fold lower, 57 nM
